{"source": "patent US20210330821A1", "about": "“METHODS OF MAKING PROSTATE CANCER TREATMENT DECISIONS” (priority 2018, published 2021)", "assay": "OSPREY safety: drug-related adverse events after 18F-DCFPyL", "format": "in vivo, human", "experimental": "The coprimary endpoints of sensitivity and specificity of ^18F-DCFPyL PET/CT for detecting pelvic lymph node metastases were evaluated in Cohort A. Secondary endpoints included safety in both cohorts, positive predictive value (PPV) and negative predictive value (NPV) in Cohort A, and sensitivity and PPV in Cohort B. Three central, blinded, and independent readers evaluated the ^18F-DCFPyL scans. Histopathology served as the reference standard to which imaging findings were compared. FIG. 1 provides information regarding the study design and cohorts.\nCo-primary endpoints of specificity and sensitivity of ^18F-DCFPyL PET/CT for detecting prostate cancer metastases in pelvic lymph nodes were evaluated in Cohort A. Key secondary endpoints included incidence of adverse events, positive predictive value (PPV) and negative predictive value (NPV) of ^18F-DCFPyL PET/CT imaging to detect pelvic lymph node metastases in Cohort A, sensitivity and PPV of ^18F-DCFPyL PET/CT imaging to detect prostate cancer within sites of metastasis or recurrence in Cohort B. Three central, blinded, and independent readers evaluated the ^18F-DCFPyL scans. Imaging findings were compared to histopathology as the truth standard.\nPts underwent image-guided biopsy."}
{"smiles": "O=C(O)CC[C@H](NC(=O)N[C@@H](CCCCNC(=O)c1ccc([18F])nc1)C(=O)O)C(=O)O", "note": "[18F-DCFPyL]", "values": [{"measurement": "Cohort B pts who experienced ≥1 drug-related AE", "setting": "Cohort B, 117 men, dysgeusia and generalized rash", "result": 1.7, "unit": "%"}, {"measurement": "Severity of drug-related AEs", "setting": "Cohort B, dysgeusia and generalized rash", "result": "mild (Grade 1)"}, {"measurement": "Dysgeusia (drug-related adverse event)", "setting": "both cohorts", "result": 2.1, "unit": "%"}, {"measurement": "Headache (drug-related adverse event)", "setting": "both cohorts", "result": 2.1, "unit": "%"}, {"measurement": "Drug-related serious adverse events", "setting": "both cohorts, 385 men", "result": "No drug-related serious adverse events were observed"}, {"measurement": "Men who experienced ≥1 drug-related adverse event", "setting": "both cohorts, 385 men", "result": 7.0, "unit": "%"}, {"measurement": "Tolerability", "setting": "patients with PCa, OSPREY", "result": "generally well tolerated"}]}
